Measured values as given in article PMC10155203 (Molecular Pharmaceutics, 2023).
Where “and” joins values, the source holds several entries; their conditions need not be identical. Equal values may be shown once. Read-outs that look alike come from different tables or passages of the source.

How the values were obtained:
[1] = set-up: method as in PMID 27693678; conditions: estimated using PKPlus module, cited from earlier work
[2] = tested on: CYP2D6; conditions: cited from earlier work
[3] = human plasma; cited from earlier work
[4] = TIM-1 dynamic in vitro gastrointestinal model, bioaccessibility of 75 mg encorafenib capsule; format: in vitro ADME; conditions: for time of maximum bioaccessibility / maximum bioaccessibility / total bioaccessibility (cumulative): TIM-1, 75 mg capsule; for maximum bioaccessibility / total bioaccessibility (cumulative): mean ± SD
Source text: To investigate the bioaccessibility under the different test conditions (i.e., in the fasted state, fed state, and with the use of a PPI), a dynamic in vitro GI model TIM-1 (TNO; Zeist, Netherlands) was used, which has previously been described and detailed pictorially.[25],[26] The bioaccessibility of the drug refers to the amount of drug available for drug absorption. The two filters, which are located at the end of the jejunal and ileal compartment, will capture the dissolved fraction of drug as released from the drug formulation with the help of a filtration process. The dissolved fraction of drug is the sum of drug molecules dissolved in the aqueous media (i.e., molecularly dissolved and encapsulated in the colloidal structures such as micelles). The TIM-1 model is a complex in vitro GI simulator that models the dynamic processes and conditions present in the lumen of the gastric and small intestinal regions of the GI tract. The TIM-1 system consists of a stomach, duodenum, jejunum, and ileum compartment. For more information about the setup of the TIM-1 model, the reader is referred to external literature.[27] After dosing the drug product to the stomach compartment, the computer-controlled system controls the transit of the drug formulation to the intestinal compartments at a rate that reflects the in vivo transit conditions observed in fasted, fed, and PPI states. At the end of the jejunal and ileal compartments, a lipid filtration system is installed to separate the dissolved amount of drug from these compartments and evaluate the amount of drug available for drug absorption (i.e., the bioaccessible fraction of drug). The TIM-1 model is programmed to evaluate drug product behavior in fasted, fed, and PPI conditions.[19],[28],[29] Depending on the chosen clinical condition (PPI, fed), specific experimental protocol is executed. Fasted state is simulated by implementing a predefined pH curve controlled by secretion of 1 M HCl into the gastric compartment. The gastric pH starts at pH 3 (including the coadministered glass of water) and will decrease to pH 1.7 as gastric secretion will acidify the gastric content. When the fasted PPI state is simulated, gastric content is adjusted to pH 4.5, and only water is secreted into the stomach compartment to maintain constant pH. During fed state studies, gastric pH starts at pH 6.5 and will decrease to basic fasted conditions (pH 1.7) as the food empties the stomach, and gastric secretion will be activated. Due to secretion and transit, the volumes and pH remain constant in the intestinal compartments. […] For more information about the TIM-1 settings and the determination of bioaccessible fraction, the reader is referred to external literature.[27],[28] The bioaccessible fraction was determined by withdrawing samples from the filtrate (at the end of the jejunum and ileum compartment) and these samples were, subsequently, analyzed by HPLC. The expression of the bioaccessible fraction can be depicted in a cumulative or noncumulative order to observe how much drug will become available as a function of time. […]

[5] = Study 2: PPI (rabeprazole) interaction clinical study, single oral dose of encorafenib, plasma PK and safety; format: in vivo, human; conditions: for Tmax: median (range); for Vd/F: read-out: Vz/F; for CL/F: mean ± SD
Method: Both studies were conducted at the Celerion Clinical Research Unit in Lincoln, NE. The trial protocols and informed consent documentation were reviewed and approved by the institutional review boards at the center. These studies were conducted in compliance with the ethical principles originating in or derived from the Declaration of Helsinki and in compliance with all International Council for Harmonization Good Clinical Practice Guideline.
The AEs described were consistent with the known safety profile of encorafenib.
Additionally, participants were instructed not to crush, split, or chew the study drug. […]
The actual sample collection times were used for the PK parameter analysis.
The overall safety profile was characterized by laboratory test abnormalities, physical examination, vital signs, ECGs, and AEs. […] Triplicate ECGs were also measured at the end of the studies or upon early termination.
These were back-transformed to obtain the GMRs and corresponding 90% CIs on the original scale. The ratios were expressed as a percentage relative to the reference treatment.

[6] = study 2, encorafenib 100 mg + rabeprazole
[7] = study 2, encorafenib 100 mg + rabeprazole vs alone
[8] = study 2, encorafenib 100 mg alone
[9] = study 2, encorafenib 300 mg alone

time of maximum bioaccessibility ([4]; PPI): 1.5 h | maximum bioaccessibility ([4]; PPI): 18% and 18 ± 4% | total bioaccessibility (cumulative) ([4]; PPI): 83% and 83 ± 6% | time of maximum bioaccessibility ([4]; fasted): 1.5 h | maximum bioaccessibility ([4]; fasted): 16% and 16 ± 4% | total bioaccessibility (cumulative) ([4]; fasted): 77% and 77 ± 4% | time of maximum bioaccessibility ([4]; fed): 4 h | maximum bioaccessibility ([4]; fed): 13% and 13 ± 0% | total bioaccessibility (cumulative) ([4]; fed): 80% and 80 ± 1% | bioaccessible fraction ([4]; TIM-1, in the 3 conditions (fasted, fed, PPI)): ≥ 80%
Structure (SMILES): COC(=O)N[C@@H](C)CNc1nccc(-c2cn(C(C)C)nc2-c2cc(Cl)cc(NS(C)(=O)=O)c2F)n1 [encorafenib, Encorafenib]
clearance ([1]; 2-compartmental, 100 mg fasted): 16.08 L/h[31] | K10 [1]: 0.197 h^–1[31] | K12 [1]: 0.173 h^–1[31] | K21 [1]: 0.016 h^–1[31] | share of metabolism by CYP2D6 [2]: 1% | in vitro protein binding [3]: 86% | tolerability ([5]; 300 mg dose compared with 100 mg dose, healthy participants): tolerated with more difficulty | AUC(0-inf) ([5]; human, plasma, oral, 100 mg): 4140 ng·h/mL | AUC(0-t) ([5]; human, plasma, oral, 100 mg): 4120 ng·h/mL | Cmax ([5]; human, plasma, oral, 100 mg): 1040 ng/mL | Tmax ([5]; human, plasma, oral, 100 mg, study 2, encorafenib 100 mg alone, read-out: Tmax): 1.5 h | Vd/F ([5]; human, plasma, oral, 100 mg): 247 ± 208 L | half-life ([5]; human, plasma, oral, 100 mg, read-out: t1/2 (converted)): 7.53 ± 7.58 h | AUC(0-inf) ([5]; human, plasma, oral, 300 mg): 14800 ng·h/mL | AUC(0-t) ([5]; human, plasma, oral, 300 mg): 14700 ng·h/mL | Cmax ([5]; human, plasma, oral, 300 mg): 3900 ng/mL | Tmax ([5]; human, plasma, oral, 300 mg, study 2, encorafenib 300 mg alone, read-out: Tmax): 1.5 h | Vd/F ([5]; human, plasma, oral, 300 mg): 470 ± 339 L | half-life ([5]; human, plasma, oral, 300 mg, read-out: t½ (converted)): 15.9 ± 11.6 h | Tmax ([5]; human, plasma, oral, study 2, encorafenib 100 mg + rabeprazole, read-out: Tmax): 2 h | changes in vital signs, laboratory values, or ECG measurements ([5]; study 2): No clinically significant changes | participants reporting feeling hot ([5]; study 2): 53% | participants reporting flushing ([5]; study 2): 80% | participants reporting headache ([5]; study 2): 93% | number of AEs of grade 2/moderate severity ([5]; study 2 (headache, nausea, myalgia)): 3 AEs | participants reporting AEs [5, 6]: 82% | mean change in AUCinf with PPI coadministration [5, 7]: < 10% | mean change in AUClast with PPI coadministration [5, 7]: < 10% | mean change in Cmax with PPI coadministration [5, 7]: < 10% | number of AEs reported ([5]; study 2, encorafenib 100 mg + rabeprazole, 11 participants): 23 AEs | CL/F [5, 6]: 26.31 ± 9.1417 L/h | participants reporting AEs [5, 8]: 90% | number of AEs reported ([5]; study 2, encorafenib 100 mg alone, 10 participants): 24 AEs | CL/F [5, 8]: 25.33 ± 8.0601 L/h | Tmax [5, 8]: 1.503 (1.01, 2.00) h | participants reporting AEs [5, 9]: 100% | number of AEs reported ([5]; study 2, encorafenib 300 mg alone, 15 participants): 106 AEs | CL/F [5, 9]: 20.59 ± 3.9043 L/h | participants who discontinued due to an AE ([5]; study 2, of 15 participants): 1 participants | participants reporting AEs ([5]; study 2, overall): 15 of 15
